# US9381200B2, “Nitrogen containing compounds” (WOCKHARDT LIMITED, priority 2011, dated 2016)
# Like-named read-outs stand apart in the source and are kept apart here.
# What was measured:
# Test in all cases: Antibacterial activity (MIC), agar dilution per CLSI
# Type in all cases: cell-based
# E. coli 7 MP = conditions: Table 3, E. coli 7 MP expressing ESBL
# Protocol: (§1) The biological activity of representative compounds according to the invention against various bacterial strains was investigated. In a typical study, overnight grown bacterial cultures were diluted appropriately and inoculated on the agar media containing doubling dilutions of the test compounds. Observation for growth or no growth was performed after 16-20 hours of incubation at 35±2° C. in ambient air. The overall procedure was performed as per Clinical and Laboratory Standards Institute (CLSI) recommendations (Clinical and Laboratory Standards Institute (CLSI), Performance Standards for Antimicrobial Susceptibility Testing, 20th Informational Supplement, M 100-S20, Volume 30, No. 1, 2010).
# (§2) Table 3 details antibacterial activity of representative compounds according to the invention against various E. coli strains (NCTC 13351, M 50 and 7 MP) expressing ESBL (Extended Spectrum Beta Lactamases).
# E. coli NCTC 13351 = conditions: 16-20 hours, 35±2° C.
# Protocol: as §1, §2
# E. coli M 50 = E. coli M 50 expressing ESBL, agar dilution
# Protocol: as §1
# The activities are expressed as MICs (mcg/ml).
# [1] = Escherichia coli, read-out: MIC
# [2] = Escherichia coli, NCTC13351, Table 3, E. coli NCTC 13351 expressing ESBL, read-out: MIC
# [3] = Escherichia coli, M50, Table 3, read-out: MIC
# [4] = Table 3, E. coli NCTC 13351 expressing ESBL
SMILES,MIC (E. coli 7 MP; [1]),MIC (E. coli NCTC 13351; [2]),MIC (E. coli M 50; [3]),MIC (E. coli 7 MP),MIC (E. coli NCTC 13351; [4]),MIC (E. coli M 50; Table 3)
"CO[C@H]1CN[C@H](C(=O)NNC(=O)[C@H]2CC[C@@H]3CN2C(=O)N3OS(=O)(=O)O)C1 (mixture of isomers) [Example 12, trans-sulfuric acid mono-[2-(N′-[(2S,4R)-4-methoxy-pyrrolidin-2-carbonyl]-hydrazinocarbonyl)-7-oxo-1,6-diaza-bicyclo[3.2.1]oct-6-yl]ester]",32 µg/mL,1 µg/mL,8 µg/mL,–,–,–
"O=C(NNC(=O)[C@H]1CC[C@@H]2CN1C(=O)N2OS(=O)(=O)O)[C@H]1CCCNC1 (mixture of isomers) [Example 15, trans-sulfuric acid mono-[2-(N′—((S)-piperidin-3-carbonyl)-hydrazinocarbonyl)-7-oxo-1,6-diaza-bicyclo[3.2.1]oct-6-yl]ester]",16 µg/mL,8 µg/mL,4 µg/mL,–,–,–
"O=C(NNC(=O)[C@H]1CCCCN1)[C@H]1CC[C@@H]2CN1C(=O)N2OS(=O)(=O)O (mixture of isomers) [Example 18, trans-sulfuric acid mono-[2-(N′—((R)-piperidin-2-carbonyl)-hydrazinocarbonyl)-7-oxo-1,6-diaza-bicyclo[3.2.1]oct-6-yl]ester]",32 µg/mL,8 µg/mL,4 µg/mL,–,–,–
"O=C(NNC(=O)[C@H]1CC[C@@H]2CN1C(=O)N2OS(=O)(=O)O)[C@H]1CCNC1 (mixture of isomers) [Example 33, trans-sulfuric acid mono-[2-(N′—[(S)-pyrrolidin-3-carbonyl]-hydrazinocarbonyl)-7-oxo-1,6-diaza-bicyclo[3.2.1]oct-6-yl]ester]",2 µg/mL,1 µg/mL,0.5 µg/mL,–,–,–
"O=C(NNC(=O)[C@H]1CC[C@@H]2CN1C(=O)N2OS(=O)(=O)O)[C@@H]1C[C@@H](O)CN1 (mixture of isomers) [Example 34, trans-sulfuric acid mono-[2-(N′-[(2S,4R)-4-hydroxy-pyrrolidin-2-carbonyl]-hydrazinocarbonyl)-7-oxo-1,6-diaza-bicyclo[3.2.1]oct-6-yl]ester]",8 µg/mL,2 µg/mL,2 µg/mL,–,–,–
"N=C(N)N[C@@H]1CN[C@H](C(=O)NNC(=O)[C@H]2CC[C@@H]3CN2C(=O)N3OS(=O)(=O)O)C1 (mixture of isomers) [Example 36, trans-sulfuric acid mono-[2-(N′-[(2S,4S)-4-guanidino-pyrrolidin-2-carbonyl]-hydrazinocarbonyl)-7-oxo-1,6-diaza-bicyclo[3.2.1]oct-6-yl]ester]",2 µg/mL,1 µg/mL,1 µg/mL,–,–,–
"O=C(NNC(=O)[C@H]1CC[C@@H]2CN1C(=O)N2OS(=O)(=O)O)[C@@H]1COCCN1 (mixture of isomers) [Example 39, trans-sulfuric acid mono-[2-(N′—((S)-morpholin-3-carbonyl)-hydrazinocarbonyl)-7-oxo-1,6-diaza-bicyclo[3.2.1]oct-6-yl]ester]",8 µg/mL,4 µg/mL,2 µg/mL,–,–,–
"O=C(NNC(=O)[C@H]1CC[C@@H]2CN1C(=O)N2OS(=O)(=O)O)C1CCCCN1 (mixture of isomers) [Example 16, trans-sulfuric acid mono-[2-(N′—((RS)-piperidin-2-carbonyl)-hydrazinocarbonyl)-7-oxo-1,6-diaza-bicyclo[3.2.1]oct-6-yl]ester]",2 µg/mL,1 µg/mL,1 µg/mL,–,–,–
"O=C(NNC(=O)[C@H]1CC[C@@H]2CN1C(=O)N2OS(=O)(=O)O)C1CCNC1 (mixture of isomers) [Example 32, trans-sulfuric acid mono-[2-(N′—[(RS)-pyrrolidin-3-carbonyl]-hydrazinocarbonyl)-7-oxo-1,6-diaza-bicyclo[3.2.1]oct-6-yl]ester]",1 µg/mL,0.5 µg/mL,0.5 µg/mL,–,–,–
"O=C(CCC1CCCCN1)NNC(=O)[C@H]1CC[C@@H]2CN1C(=O)N2OS(=O)(=O)O (mixture of isomers) [Example 37, trans-sulfuric acid mono-[2-(N′—[(RS)-3-piperidin-2-yl-propionyl]-hydrazinocarbonyl)-7-oxo-1,6-diaza-bicyclo[3.2.1]oct-6-yl]ester]",4 µg/mL,2 µg/mL,2 µg/mL,–,–,–

# Second part, the compound after the results:
MIC (E. coli 7 MP; [1]),MIC (E. coli NCTC 13351; [2]),MIC (E. coli M 50; [3]),MIC (E. coli 7 MP),MIC (E. coli NCTC 13351; [4]),MIC (E. coli M 50; Table 3),SMILES
2 µg/mL,1 µg/mL,1 µg/mL,–,–,–,"NCCCC[C@H](N)C(=O)NNC(=O)[C@H]1CC[C@@H]2CN1C(=O)N2OS(=O)(=O)O (mixture of isomers) [Example 26, trans-sulfuric acid mono-[2-(N′-((2S)-2,6-diamino-hexanoyl)-hydrazinocarbonyl)-7-oxo-1,6-diaza-bicyclo[3.2.1]oct-6-yl]ester]"
–,–,–,8 µg/mL,2 µg/mL,2 µg/mL,"NC(C(=O)NNC(=O)[C@H]1CC[C@@H]2CN1C(=O)N2OS(=O)(=O)O)c1ccccc1 (mixture of isomers) [Example 20, trans-sulfuric acid mono-[2-(N′—((RS)-1-amino-1-phenyl-acetyl)-hydrazinocarbonyl)-7-oxo-1,6-diaza-bicyclo[3.2.1]oct-6-yl]ester]"
4 µg/mL,1 µg/mL,1 µg/mL,–,–,–,"CC(N)CC(=O)NNC(=O)[C@H]1CC[C@@H]2CN1C(=O)N2OS(=O)(=O)O (mixture of isomers) [Example 21, trans-sulfuric acid mono-[2-(N′—((RS)-3-amino-butanoyl)-hydrazinocarbonyl)-7-oxo-1,6-diaza-bicyclo[3.2.1]oct-6-yl]ester]"
–,–,–,16 µg/mL,4 µg/mL,4 µg/mL,"NC(C(=O)NNC(=O)[C@H]1CC[C@@H]2CN1C(=O)N2OS(=O)(=O)O)c1ccccn1 (mixture of isomers) [Example 41, trans-sulfuric acid mono-[2-(N′—((RS)-1-amino-1-pyridin-2-yl-acetyl)-hydrazinocarbonyl)-7-oxo-1,6-diaza-bicyclo[3.2.1]oct-6-yl]ester]"
128 µg/mL,32 µg/mL,64 µg/mL,–,–,–,"NNC(=O)[C@H]1CC[C@@H]2CN1C(=O)N2OS(=O)(=O)O (relative stereo) [Example 6, trans-sulfuric acid mono-[2-hydrazinocarbonyl-7-oxo-1,6-diaza-bicyclo[3.2.1]oct-6-yl]ester]"
–,–,–,32 µg/mL,1 µg/mL,8 µg/mL,N[C@@H](CO)C(=O)NNC(=O)[C@H]1CC[C@@H]2CN1C(=O)N2OS(=O)(=O)O (relative stereo) [Example 10]
8 µg/mL,4 µg/mL,4 µg/mL,–,–,–,"CC(C)(CN)C(=O)NNC(=O)[C@H]1CC[C@@H]2CN1C(=O)N2OS(=O)(=O)O (relative stereo) [Example 22, trans-sulfuric acid mono-[2-(N′-(3-amino-2,2-dimethyl-propioyl)-hydrazinocarbonyl)-7-oxo-1,6-diaza-bicyclo[3.2.1]oct-6-yl]ester]"
8 µg/mL,4 µg/mL,4 µg/mL,–,–,–,"NCC1(C(=O)NNC(=O)[C@H]2CC[C@@H]3CN2C(=O)N3OS(=O)(=O)O)CC1 (relative stereo) [Example 23, trans-sulfuric acid mono-[2-(N′-(1-aminomethyl-cyclopropan-1-carbonyl)-hydrazinocarbonyl)-7-oxo-1,6-diaza-bicyclo[3.2.1]oct-6-yl]ester]"
